Reference: patent US11773078B2, “Furin inhibitors” (Glaxosmithkline Intellectual Property Development Limited, priority 2018, dated 2023)
Where a name gives a salt, the structure may show the parent alone.

Key:
[1] = biological target: T1, furin (endogenous protease) in U20S cells (Homo sapiens, UniProt P09958); experiment: Furin cell-based assay (image-based, Golgi-targeted GFP with BMP10 furin/PCSK cleavage site); conditions: 24-hour incubation, read-out: furin golgi cell pXC50 (converted);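 note: Read-out is mean GFP fluorescence of Golgi puncta per cell by high-content imaging, retained when furin inhibited, over an eleven-point 0.00017–10 µM series, four-parameter fit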
T1 construct: the endogenous protease cleaves GFP; endogenous in cells; host or cells: U2OS cells transduced with a BacMam reporter
Method: This assay uses an image-based platform to evaluate the intracellular activity of compounds of the invention. Reactions were performed in black 384-well, tissue culture-treated, clear bottom plates (Greiner). Compounds under analysis were dissolved in DMSO (1.0 mM) and serially diluted 1 to 3 with DMSO through eleven dilutions. This creates a final compound concentration range from 0.00017 to 10 μM, and 0.1 μL of each concentration was transferred to the corresponding well of the assay plate. Assays were initiated by the addition of U20S cells simultaneously transduced with a BacMam-delivered construct containing a Golgi-targeting sequence followed by a 12-amino acid furin/PCSK cleavage site from Bone Morphogenic Protein 10 (BMP10) and then GFP at the C terminus. […] Briefly, frozen cells are thawed in assay media (Dulbecco's Modified Eagles Medium Nutritional Mixture F-12 (Ham) without phenol red containing 5% FBS) and diluted to deliver 6000 cells/well (50 μL) to the plate using a Multidrop Combi (Thermo).
After a 24-hour incubation period at 37° C., the cells are stained with Cell Mask Deep Red, fixed in paraformaldehyde and the nuclei stained using Ho33342. The Golgi-targeted GFP forms bright punctate clusters within the cell. In the absence of a furin inhibitor, the endogenous protease cleaves GFP from its N-acetylgalactosaminyltransferase-2 Golgi tether, releasing GFP into the Golgi lumen where fluorescence is diluted below the threshold of assay sensitivity. […] Cellular GFP intensity is determined by image-based acquisition (Incell 2200, Perkin Elmer) at 40× magnification with 4 fields measured per well. Multi-scale tophat segmentation is used to identify the GFP-tagged puncta and to quantitate the average fluorescence of all puncta on a per cell basis. Cellular toxicity is determined in parallel.
Data were analyzed using AbaseXE 7.3, utilizing a four-parameter curve fit equation. The following values were used to define limits and/or constraints for each of the four parameters: • Minimum—limit −10 to 10 • Maximum—90 to 110 • Slope—limit 0.5 to 2.0 • pXC50 confidence interval—10
Raw counts obtained from the respective plate reader (Perkin Elmer) were captured for data analysis. Curves were generated using the equation: Y=A+[(B−A)/(1+(10^C/x)^D)] • where: A=minimum response • B=maximum response • C=log 10*XC50 • D=slope factor • x=log 10 compound concentration [M]
The results were recorded as pXC50 values (−C in the above equation)

[2] = biological target: T2, Furin (108-574-Tev-Flag-His) enzyme (Homo sapiens, UniProt P09958); experiment: Furin enzyme assay; format: biochemical
T2 construct: Furin (108-574-Tev-Flag-His) enzyme was expressed and purified from CHO cells; TEV cleavage site (C); FLAG (C); His (C); made in house; host or cells: CHO cells
In short: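 Compounds ran as 11-point threefold dilutions (0.00017–10 μM final) against 40 pM furin, purified from CHO cells, for 2 h at room temperature. Buffer: 100 mM HEPES pH7.5 with 1 mM CaCl2 and 0.005% Triton X-100. Envision readout. Four-parameter curve gives pXC50.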

T2 sequence (P09958 108-574): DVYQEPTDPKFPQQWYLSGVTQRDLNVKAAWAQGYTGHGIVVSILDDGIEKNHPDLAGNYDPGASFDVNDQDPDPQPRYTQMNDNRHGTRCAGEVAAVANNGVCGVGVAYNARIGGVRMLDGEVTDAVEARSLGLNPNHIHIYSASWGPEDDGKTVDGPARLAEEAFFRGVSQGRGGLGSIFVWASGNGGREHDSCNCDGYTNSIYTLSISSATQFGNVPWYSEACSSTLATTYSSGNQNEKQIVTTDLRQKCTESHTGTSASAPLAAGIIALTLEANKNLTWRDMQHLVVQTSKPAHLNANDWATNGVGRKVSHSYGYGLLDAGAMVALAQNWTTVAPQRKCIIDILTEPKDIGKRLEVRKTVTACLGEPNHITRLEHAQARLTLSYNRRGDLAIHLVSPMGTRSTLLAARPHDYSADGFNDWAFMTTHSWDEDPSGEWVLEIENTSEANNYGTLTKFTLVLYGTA
T1 sequence (P09958 108-794): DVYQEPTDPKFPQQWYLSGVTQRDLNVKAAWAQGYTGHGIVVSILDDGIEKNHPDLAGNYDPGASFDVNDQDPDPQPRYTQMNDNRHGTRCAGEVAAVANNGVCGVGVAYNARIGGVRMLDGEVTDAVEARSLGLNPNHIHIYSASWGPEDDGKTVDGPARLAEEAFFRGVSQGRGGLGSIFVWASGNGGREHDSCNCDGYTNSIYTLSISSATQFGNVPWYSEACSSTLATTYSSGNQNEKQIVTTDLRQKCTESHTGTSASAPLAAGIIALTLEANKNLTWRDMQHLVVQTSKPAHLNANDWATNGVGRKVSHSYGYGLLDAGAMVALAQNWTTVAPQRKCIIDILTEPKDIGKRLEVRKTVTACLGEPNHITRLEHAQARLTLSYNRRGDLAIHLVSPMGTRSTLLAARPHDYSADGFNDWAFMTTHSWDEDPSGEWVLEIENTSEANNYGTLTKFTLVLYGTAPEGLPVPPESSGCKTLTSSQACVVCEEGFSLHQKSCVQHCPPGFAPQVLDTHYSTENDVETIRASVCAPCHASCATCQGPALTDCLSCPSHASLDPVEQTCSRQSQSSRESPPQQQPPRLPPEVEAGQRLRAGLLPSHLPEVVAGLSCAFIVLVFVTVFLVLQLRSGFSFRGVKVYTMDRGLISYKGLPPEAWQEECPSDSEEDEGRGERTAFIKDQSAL

| Structure (SMILES) | EC50 [1] [nM] | furin enzyme pIC50 [2] |
| --- | --- | --- |
| Cc1c(CN2CCC(CC(=O)O)CC2)cc(-c2cc(Cl)cc(Cl)c2)nc1Oc1ccc(N2CCN(C)CC2)nc1 [Example 386, 2-(1-((6-(3,5-Dichlorophenyl)-3-methyl-2-((6-(4-methylpiperazin-1-yl)pyridin-3-yl)oxy)pyridin-4-yl)methyl)piperidin-4-yl)acetic acid, 4 hydrochloride] | 10 | 8.4 |
| O=C(O)CC1CCN(Cc2cc(Oc3cnc(N4CC5CNCC5C4)nc3)nc(-c3cc(Cl)cc(Cl)c3)c2)CC1 (stereo not drawn) [Example 161, 2-(1-((2-(3,5-dichlorophenyl)-6-((2-(hexahydropyrrolo[3,4-c]pyrrol-2(1H)-yl)pyrimidin-5-yl)oxy)pyridin-4-yl)methyl)piperidin-4-yl)acetic acid] | 39.8 | 8.3 |
| CCN1CCCN(c2cnc(Oc3cc(CN4CCC(CC(=O)O)CC4)cc(-c4cc(Cl)cc(Cl)c4)n3)cn2)CC1 [Example 345, 2-(1-((2-(3,5-dichlorophenyl)-6-((5-(4-ethyl-1,4-diazepan-1-yl)pyrazin-2-yl)oxy)pyridin-4-yl)methyl)piperidin-4-yl)acetic acid] | 12.6 | 8.6 |
| CC(=O)NCC1CCN(Cc2cc(Oc3ccc(N4CCNCC4)nc3)nc(-c3cc(Cl)cc(Cl)c3)n2)CC1 [Example 89, N-((1-((2-(3,5-Dichlorophenyl)-6-((6-(piperazin-1-yl)pyridin-3-yl)oxy)pyrimidin-4-yl)methyl)piperidin-4-yl)methyl)acetamide, 4 hydrochloride] | 12.6 | 8 |
| COCCN1CCN(c2ccc(Oc3cc(CN4CCC(CNC(C)=O)CC4)cc(-c4cc(Cl)cc(Cl)c4)n3)cn2)CC1 [Example 250, N-((1-((2-(3,5-dichlorophenyl)-6-((6-(4-(2-methoxyethyl)piperazin-1-yl)pyridin-3-yl)oxy)pyridin-4-yl)methyl)piperidin-4-yl)methyl)acetamide] | < 0.794 | 8.9 |
| COCCN1CCN(c2ncc(Oc3cc(CN4CCC(CC(=O)O)CC4)cc(-c4cc(Cl)cc(Cl)c4)n3)cn2)CC1 [Example 247, 2-(1-((2-(3,5-dichlorophenyl)-6-((2-(4-(2-methoxyethyl)piperazin-1-yl)pyrimidin-5-yl)oxy)pyridin-4-yl)methyl)piperidin-4-yl)acetic acid] | 31.6 | 8.5 |
| CC(=O)NCC1CCN(Cc2cc(Oc3ccc(N4CCN(CCN)CC4)nc3)nc(-c3cc(Cl)cc(Cl)c3)c2)CC1 [Example 28, N-((1-((2-((6-(4-(2-Aminoethyl)piperazin-1-yl)pyridin-3-yl)oxy)-6-(3,5-dichlorophenyl)pyridin-4-yl)methyl)piperidin-4-yl)methyl)acetamide] | 2 | 9 |
| CC(=O)NCC1CCN(Cc2cc(Oc3ccc(N4CCN(C)CC4)nn3)nc(-c3cc(Cl)cc(Cl)c3)c2)CC1 [Example 157, N-((1-((2-(3,5-dichlorophenyl)-6-((6-(4-methylpiperazin-1-yl)pyridazin-3-yl)oxy)pyridin-4-yl)methyl)piperidin-4-yl)methyl)acetamide] | 1.26 | 10.8 |
| COC(=O)NC(=O)CCN1CCN(c2ccc(Oc3cc(CN4CCC(CNC(C)=O)CC4)cc(-c4cc(Cl)cc(Cl)c4)n3)cn2)CC1 [Example 176, methyl (3-(4-(5-((4-((4-(acetamidomethyl)piperidin-1-yl)methyl)-6-(3,5-dichlorophenyl)pyridin-2-yl)oxy)pyridin-2-yl)piperazin-1-yl)propanoyl)carbamate] | 3.98 | 9 |
| O=C(O)CCN1CCN(c2ccc(Oc3cc(CN4CCC(CNC(=O)C5CC5)CC4)cc(-c4cc(Cl)cc(Cl)c4)n3)cn2)CC1 [Example 58, 3-(4-(5-((4-((4-(cyclopropanecarboxamidomethyl)piperidin-1-yl)methyl)-6-(3,5-dichlorophenyl)pyridin-2-yl)oxy)pyridin-2-yl)piperazin-1-yl)propanoic acid] | 15.8 | 9.2 |
| CN1CCN(c2ncc(Oc3cc(CN4CCC(CP(C)(C)=O)CC4)cc(-c4cc(Cl)cc(Cl)c4)n3)cn2)CC1 [Example 320, ((1-((2-(3,5-Dichlorophenyl)-6-((2-(4-methylpiperazin-1-yl)pyrimidin-5-yl)oxy)pyridin-4-yl)methyl)piperidin-4-yl)methyl)dimethylphosphine oxide, 4 hydrochloride] | 12.6 | 8.2 |
| CN1CCN(c2cnc(Oc3cc(CN4CCC(OC5(C(=O)O)CC5)CC4)cc(-c4cc(Cl)cc(Cl)c4)n3)cn2)CC1 [Example 353, 1-((1-((2-(3,5-dichlorophenyl)-6-((5-(4-methylpiperazin-1-yl)pyrazin-2-yl)oxy)pyridin-4-yl)methyl)piperidin-4-yl)oxy)cyclopropanecarboxylic acid] | 25.1 | 8.1 |
| O=C(O)CC1CCN(Cc2cc(Oc3ccc(N4CCN(CCO)CC4)nc3)nc(-c3cc(Cl)cc(Cl)c3)c2)CC1 [Example 300, 2-(1-((2-(3,5-dichlorophenyl)-6-((6-(4-(2-hydroxyethyl)piperazin-1-yl)pyridin-3-yl)oxy)pyridin-4-yl)methyl)piperidin-4-yl)acetic acid] | 20 | 9.1 |
| CC(CCN(C)C)N1CCN(c2ncc(Oc3cc(CN4CCC(CC(=O)O)CC4)cc(-c4cc(Cl)cc(Cl)c4)n3)cn2)CC1 (stereo not drawn) [Example 240, 2-(1-((2-(3,5-Dichlorophenyl)-6-((2-(4-(4-(dimethylamino)butan-2-yl)piperazin-1-yl)pyrimidin-5-yl)oxy)pyridin-4-yl)methyl)piperidin-4-yl)acetic acid] | 6.31 | 8.4 |
| CC(=O)NCC1CCN(Cc2cc(Oc3cnc(N4CCN(CC(O)CF)CC4)nc3)nc(-c3cc(Cl)cc(Cl)c3)c2)CC1 (stereo not drawn) [Example 304, N-((1-((2-(3,5-dichlorophenyl)-6-((2-(4-(3-fluoro-2-hydroxypropyl)piperazin-1-yl)pyrimidin-5-yl)oxy)pyridin-4-yl)methyl)piperidin-4-yl)methyl)acetamide] | 2.51 | 8.8 |
| CC(=O)NCC1CCN(Cc2cc(Oc3ccc(N4CC[N+](C)(O)CC4)nc3)nc(-c3cc(Cl)cc(Cl)c3)c2)CC1 [Example 178, 4-(5-((4-((4-(Acetamidomethyl)piperidin-1-yl)methyl)-6-(3,5-dichlorophenyl)pyridin-2-yl)oxy)pyridin-2-yl)-1-methylpiperazine1-oxide] | < 2.51 | 8.9 |
| CN1C[C@@H]2C[C@H]1CN2c1ncc(Oc2cc(CN3CCC(CC(=O)O)CC3)cc(-c3cc(Cl)cc(Cl)c3)n2)cn1 [Example 231, 2-(1-((2-(3,5-dichlorophenyl)-6-((2-((1S,4S)-5-methyl-2,5-diazabicyclo[2.2.1]heptan-2-yl)pyrimidin-5-yl)oxy)pyridin-4-yl)methyl)piperidin-4-yl)acetic acid] | 10 | 8.5 |
| CC(=O)NCC1(O)CCN(Cc2cc(Oc3cnc(N4CCNCC4)c(F)c3)nc(-c3cc(Cl)cc(Cl)c3)c2)CC1 [Example 91, N-((1-((2-(3,5-Dichlorophenyl)-6-((5-fluoro-6-(piperazin-1-yl)pyridin-3-yl)oxy)pyridin-4-yl)methyl)-4-hydroxypiperidin-4-yl)methyl)acetamide, 4 hydrochloride] | 39.8 | 8.4 |
